These results are taken from ChEMBL document CHEMBL3751793, “Preparation of N-Phenyl-lactam Derivatives Capable of Stimulating Neurogenesis and Their Use in the Treatment of Neurological Disorders” (2015).

The subject of this experiment is NSC. Put plainly: Increase in cell proliferation of human NSC cells assessed as increase in ATP level after 4 days by CelltiterGlo assay. The experiment is classed as functional.

On to `COc1cc(N2CCC(c3cccc(Cl)c3)C2=O)ccc1-c1cn[nH]c1` (stereo not drawn), for which the EC150 was found to be 65.9 nM. The figure for `COc1cccc(C2CCN(c3ccc(-c4cnco4)c(OC)c3)C2=O)c1` (stereo not drawn) is 81.4 nM; for `COc1cccc(C2CCN(c3ccc(-c4cn[nH]c4)c(OC)c3)C2=O)c1` (stereo not drawn) it is 29.9 nM; for `COc1cc(N2CCN(Cc3cccc(OC(F)(F)F)c3)C2=O)ccc1-c1cn[nH]c1` it is 9.2 nM. Take `COc1cccc(C2CCN(c3ccc(-c4ccncc4)cc3)C2=O)c1` (stereo not drawn): the EC150 is listed as 15.5 nM. The result for `COc1cc(N2CCN(Cc3ccccc3C(F)(F)F)C2=O)ccc1-c1ccncc1` reads 35.1 nM. For the compound `COc1cc(N2CCC(c3ccccc3)C2=O)ccc1-c1cn[nH]c1` (stereo not drawn), the EC150 was determined as 41.4 nM. The result for `COc1cccc(CN2CCN(c3ccc(-c4cn[nH]c4)c(OC)c3)C2=O)c1` reads 23.9 nM. For `COc1cccc(CN2CCN(c3ccc(-c4cn[nH]c4)c(F)c3)C2=O)c1`, the EC150 was determined as 15.7 nM.

For the compound `COc1cc(N2CCN(Cc3cccc(F)c3)C2=O)ccc1-c1cn[nH]c1`, the EC150 came to 47 nM.

Turning to `CCOc1cccc(CN2CCN(c3ccc(-c4cn[nH]c4)c(OC)c3)C2=O)c1`, the EC150 worked out at 73.9 nM.

Consider `COc1cc(N2CCN(Cc3cccc(C(F)(F)F)c3)C2=O)ccc1-c1cn[nH]c1`, for which the EC150 was 8.6 nM. For the compound `COc1cc(N2CCN(Cc3cccc(C)c3)C2=O)ccc1-c1ccncc1`, the EC150 stood at 29.8 nM. Regarding `COc1cc(N2CCN(Cc3ccncc3)C2=O)ccc1-c1cn[nH]c1`, the EC150 is 42 nM. The result for `COc1cccc(C2CCN(c3ccc(-c4ccncc4)c(OC)c3)C2=O)c1` (stereo not drawn) reads 61.3 nM. `COc1cccc(CN2CCN(c3ccc(-c4cn[nH]c4)cc3F)C2=O)c1`: the EC150 amounted to 41.6 nM. On to `O=C1C(c2ccc(F)cc2)CCN1c1ccc(-c2cn[nH]c2)cc1` (stereo not drawn), for which the EC150 is given as 41.7 nM. For `COc1cc(N2CCC(c3cccc(F)c3)C2=O)ccc1-c1cn[nH]c1` (stereo not drawn), the EC150 is listed as 77.6 nM.
